From patent publication US20090054493A1, “THIAZOLE DERIVATIVES AS PPAR DELTA LIGANDS AND THEIR MANUFACTURING PROCESS” (priority 2005, published 2009)

Experiments:
Type in all cases: cell-based
[1] = molecular target: T1, PPARδ (Homo sapiens, UniProt Q03181); test: Transfection assay (luciferase reporter) in CV-1 cells, PPARδ; parameters: full-length PPARs plasmid DNA; expressed in transfected cells; host or cells: CV-1 cells; settings: full-length PPAR plasmid, luciferase normalized with β-galactosidase
T1 sequence (Q03181 1-441): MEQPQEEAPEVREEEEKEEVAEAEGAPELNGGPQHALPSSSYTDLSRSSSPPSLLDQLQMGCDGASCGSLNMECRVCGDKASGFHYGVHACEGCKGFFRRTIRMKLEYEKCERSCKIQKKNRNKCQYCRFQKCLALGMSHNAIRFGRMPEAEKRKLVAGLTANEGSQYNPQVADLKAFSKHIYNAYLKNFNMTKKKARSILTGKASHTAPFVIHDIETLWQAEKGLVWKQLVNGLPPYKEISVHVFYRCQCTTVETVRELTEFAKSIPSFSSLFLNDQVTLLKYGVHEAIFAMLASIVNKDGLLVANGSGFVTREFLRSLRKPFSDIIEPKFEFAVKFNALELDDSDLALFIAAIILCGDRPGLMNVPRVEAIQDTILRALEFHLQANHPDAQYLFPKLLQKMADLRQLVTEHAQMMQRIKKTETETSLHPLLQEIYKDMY
Procedure: (§1) The compounds prepared in Examples were tested for PPARδ activity by a transfection assay. In addition, the compounds were tested for selectivity for PPARα and PPARγ, the subtypes of PPARs, and also tested for toxicity by a MTT assay.
(§2) A transfection assay was performed using CV-1 cells. The culture of the cells was performed using a DMEM medium (10% FBS, DBS (delipidated) and 1% penicillin/streptomycin) on a 96-well plate in a 5% carbon dioxide-containing incubator at 37° C. […] Specifically, CV-1 cells were inoculated onto a 96-well plate at a concentration of 5,000 cells/well, and after 24 hours, the cells were transfected. In the cell transfection, full-length PPARs plasmid DNA, reporter DNA that has luciferase activity and thus allows the identification of PPARs, and β-galactosidase DNA that provides the information of transfection efficiency, were used as transfection reagents. Each of the compounds developed in the present invention was dissolved in dimethylsulfoxide (DMSO) and transfected into the cells at various concentrations using media. The cells were cultured in an incubator for 24 and then lysed with lysis buffer. The lysed cells were measured for luciferase and β-galactosidase activities using a luminometer and a microplate reader. The measured luciferase values were normalized with the β-galactosidase values and graphed. From the graph, EC50 values were determined.

[2] = MTT assay, cytotoxicity; settings: African green monkey, CV-1 cells, read-out: LC50 Cytotoxicity
Procedure: The compounds of Examples 47-97 according to the present invention were tested for cytotoxicity using a MTT assay. MTT is a water-soluble yellow substance, but if it is introduced into living cells, it will be degenerated into a water-insoluble purple crystal due to dehydrogenase contained in mitochondria. If this substance is dissolved in dimethylsulfoxide and then measured for absorbance at 550 nm, cytotoxicity can be assayed. The test method is as follows.
CV-1 cells were first inoculated onto a 96-well plate at a concentration of 5,000 cells/well. The inoculated cells were cultured in a 5% carbon dioxide-containing humidified incubator at 37° C. for 24 hours, and then treated with the inventive compounds at various concentrations. After 24 hours of culture, a MTT reagent was added to the cultured cells. After 15 minutes of culture, the resulting purple crystal was dissolved in dimethylsulfoxide and then measured for absorbance using a microplate reader. From the measured absorbance, cytotoxicity was assayed.

[3] = molecular target: T2, PPARα (Homo sapiens, UniProt Q07869); test: Transfection assay (luciferase reporter) in CV-1 cells, PPARα; settings: full-length PPAR plasmid, luciferase normalized with β-galactosidase
T2 construct: full-length PPARs plasmid DNA; expressed in transfected cells; host or cells: CV-1 cells
T2 sequence (Q07869 1-468): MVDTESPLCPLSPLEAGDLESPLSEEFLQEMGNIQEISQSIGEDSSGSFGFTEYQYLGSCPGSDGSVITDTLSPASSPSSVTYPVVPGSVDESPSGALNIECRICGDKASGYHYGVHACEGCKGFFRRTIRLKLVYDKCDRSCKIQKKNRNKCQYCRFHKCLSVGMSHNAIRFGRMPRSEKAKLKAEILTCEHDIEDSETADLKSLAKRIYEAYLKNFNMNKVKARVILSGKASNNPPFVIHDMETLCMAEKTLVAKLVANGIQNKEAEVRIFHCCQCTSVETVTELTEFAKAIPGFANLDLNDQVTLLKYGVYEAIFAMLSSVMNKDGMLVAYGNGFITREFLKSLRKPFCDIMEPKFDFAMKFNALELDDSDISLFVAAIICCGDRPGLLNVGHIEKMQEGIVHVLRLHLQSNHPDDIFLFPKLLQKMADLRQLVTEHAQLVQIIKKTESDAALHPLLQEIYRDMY
Procedure: as §1
A transfection assay was performed using CV-1 cells. The culture of the cells was performed using a DMEM medium (10% FBS, DBS (delipidated) and 1% penicillin/streptomycin) on a 96-well plate in a 5% carbon dioxide-containing incubator at 37° C. The test was performed in four steps consisting of cell inoculation, transfection, treatment of the compounds, and analysis of results. Specifically, CV-1 cells were inoculated onto a 96-well plate at a concentration of 5,000 cells/well, and after 24 hours, the cells were transfected. In the cell transfection, full-length PPARs plasmid DNA, reporter DNA that has luciferase activity and thus allows the identification of PPARs, and β-galactosidase DNA that provides the information of transfection efficiency, were used as transfection reagents. Each of the compounds developed in the present invention was dissolved in dimethylsulfoxide (DMSO) and transfected into the cells at various concentrations using media. The cells were cultured in an incubator for 24 and then lysed with lysis buffer. The lysed cells were measured for luciferase and β-galactosidase activities using a luminometer and a microplate reader. The measured luciferase values were normalized with the β-galactosidase values and graphed. From the graph, EC50 values were determined.

[4] = molecular target: T3, PPARγ (Homo sapiens, UniProt P37231); test: Transfection assay (luciferase reporter) in CV-1 cells, PPARγ; settings: full-length PPAR plasmid, luciferase normalized with β-galactosidase
T3 construct: full-length PPARs plasmid DNA; expressed in transfected cells; host or cells: CV-1 cells
T3 sequence (P37231 1-505): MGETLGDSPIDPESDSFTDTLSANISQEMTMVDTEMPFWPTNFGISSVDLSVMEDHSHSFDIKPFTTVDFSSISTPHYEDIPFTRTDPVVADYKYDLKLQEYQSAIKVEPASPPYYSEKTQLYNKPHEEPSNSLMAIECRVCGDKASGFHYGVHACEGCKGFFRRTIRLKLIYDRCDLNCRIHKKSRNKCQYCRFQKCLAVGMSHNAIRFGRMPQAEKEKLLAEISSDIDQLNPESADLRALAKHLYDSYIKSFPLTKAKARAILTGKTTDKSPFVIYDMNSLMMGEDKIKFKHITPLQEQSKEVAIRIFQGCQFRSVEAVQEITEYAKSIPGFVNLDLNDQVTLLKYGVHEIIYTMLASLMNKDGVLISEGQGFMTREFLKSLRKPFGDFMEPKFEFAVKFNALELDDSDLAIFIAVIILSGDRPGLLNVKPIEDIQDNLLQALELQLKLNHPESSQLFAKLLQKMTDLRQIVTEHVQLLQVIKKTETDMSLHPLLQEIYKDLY
Procedure: as §1, §2

| Compound | EC50 [1] [nM] | CC50 at 24 h [2] [µM] | EC50 PPARα [3] | EC50 PPARγ [4] |
| --- | --- | --- | --- | --- |
| CCOC(=O)COc1ccc(SC(Cc2c(F)cccc2Cl)c2sc(-c3ccc(C(F)(F)F)cc3)nc2C)cc1C (centres unmarked) [Example 47] | 6.5 | > 100 | ia | ia |
| Cc1cc(SC(CCc2ccccc2)c2sc(-c3ccc(C(F)(F)F)cc3)nc2C)ccc1OCC(=O)O (centres unmarked) [Example 68, 2-[4-[1-[2-[4-(trifluoromethyl)phenyl]-4-methylthiazol-5-yl]-3-phenylpropylthio]-2-methylphenoxy]acetic acid] | 2.7 | > 100 | ia | ia |
| Cc1cc(SC(CCCc2ccccc2)c2sc(-c3ccc(C(F)(F)F)cc3)nc2C)ccc1OCC(=O)O (centres unmarked) [Example 70, 2-[4-[1-[2-[4-(trifluoromethyl)phenyl]-4-methylthiazol-5-yl]-4-phenylbutylthio]-2-methylphenoxy]acetic acid] | 6.1 | 91 | ia | ia |
| Cc1cc(SC(CCCCc2ccccc2)c2sc(-c3ccc(C(F)(F)F)cc3)nc2C)ccc1OCC(=O)O (centres unmarked) [Example 71, 2-[4-[1-[2-[4-(trifluoromethyl)phenyl]-4-methylthiazol-5-yl]-5-phenylpentylthio]-2-methylphenoxy]acetic acid] | 38.8 | 93 | ia | ia |
| Cc1cc(SC(CCCCCc2ccccc2)c2sc(-c3ccc(C(F)(F)F)cc3)nc2C)ccc1OCC(=O)O (centres unmarked) [Example 72, 2-[4-[1-[2-[4-(trifluoromethyl)phenyl]-4-methylthiazol-5-yl]-6-phenylhexylthio]-2-methylphenoxy]acetic acid] | 11.5 | 92 | ia | ia |
| Cc1cc(SC(CCCCCCCc2ccccc2)c2sc(-c3ccc(C(F)(F)F)cc3)nc2C)ccc1OCC(=O)O (centres unmarked) [Example 73, 2-[4-[1-[2-[4-(trifluoromethyl)phenyl]-4-methylthiazol-5-yl]-8-phenyloctylthio]-2-methylphenoxy]acetic acid] | 57.2 | 94 | ia | ia |
| Cc1cc(SC(CCCCCCCCCCc2ccccc2)c2sc(-c3ccc(C(F)(F)F)cc3)nc2C)ccc1OCC(=O)O (centres unmarked) [Example 74, 2-[4-[1-[2-[4-(trifluoromethyl)phenyl]-4-methylthiazol-5-yl]-11-phenylundecylthio]-2-methylphenoxy]acetic acid] | 132 | > 100 | ia | ia |
| Cc1cc(SC(Cc2c(F)cccc2Cl)c2sc(-c3ccc(C(F)(F)F)cc3)nc2C)ccc1OCC(=O)O (centres unmarked) [Example 75, 2-[4-[2-(2-chloro-6-fluorophenyl)-1-[2-[4-(trifluoromethyl)phenyl]-4-methylthiazol-5-yl]ethylthio]-2-methylphenoxy]acetic acid] | 2.1 | > 100 | ia | ia |
| Cc1cc(SC(Cc2ccc(C#N)cc2)c2sc(-c3ccc(C(F)(F)F)cc3)nc2C)ccc1OCC(=O)O (centres unmarked) [Example 76, 2-[4-[2-(4-cyanophenyl)-1-[2-[4-(trifluoromethyl)phenyl]-4-methylthiazol-5-yl]ethylthio]-2-methylphenoxy]acetic acid] | 22.1 | > 100 | ia | ia |
| Cc1cc(SC(Cc2ccc(C(F)(F)F)cc2)c2sc(-c3ccc(C(F)(F)F)cc3)nc2C)ccc1OCC(=O)O (centres unmarked) [Example 78, 2-[4-[2-[4-(trifluoromethyl)phenyl]-1-[2-[4-(trifluoromethyl)phenyl]-4-methylthiazol-5-yl]ethylthio]-2-methylphenoxy]acetic acid] | 13.3 | > 100 | ia | ia |
| COc1cc(CC(Sc2ccc(OCC(=O)O)c(C)c2)c2sc(-c3ccc(C(F)(F)F)cc3)nc2C)cc(OC)c1 (centres unmarked) [Example 79, 2-[4-[1-[2-[4-(trifluoromethyl)phenyl]-4-methylthiazol-5-yl]-2-(3,5-dimethoxyphenyl)ethylthio]-2-methylphenoxy]acetic acid] | 46.4 | > 100 | ia | ia |
| Cc1cc(SC(Cc2c(F)c(F)c(F)c(F)c2F)c2sc(-c3ccc(C(F)(F)F)cc3)nc2C)ccc1OCC(=O)O (centres unmarked) [Example 80, 2-[4-[1-[2-[4-(trifluoromethyl)phenyl]-4-methylthiazol-5-yl]-2-(perfluorophenyl)ethylthio]-2-methylphenoxy]acetic acid] | 46.4 | > 100 | ia | – |
| Cc1cc(SC(Cc2ccc(Br)cc2)c2sc(-c3ccc(C(F)(F)F)cc3)nc2C)ccc1OCC(=O)O (centres unmarked) [Example 81, 2-[4-[2-(4-bromophenyl)-1-[2-[4-(trifluoromethyl)phenyl]-4-methylthiazol-5-yl]ethylthio]-2-methylphenoxy]acetic acid] | 11.5 | 92 | – | ia |
| Cc1cc(SC(Cc2c(F)cccc2C(F)(F)F)c2sc(-c3ccc(C(F)(F)F)cc3)nc2C)ccc1OCC(=O)O (centres unmarked) [Example 82, 2-[4-[2-[2-fluoro-6-(trifluoromethyl)phenyl]-1-[2-[4-(trifluoromethyl)phenyl]-4-methylthiazol-5-yl]ethylthio]-2-methylphenoxy]acetic acid] | 2.6 | > 100 | ia | – |
